US6514911B1, “Substituted oxadiazines useful as pesticides” (Uniroyal Chemical Company, Inc., priority 2002, dated 2003)

How the values were obtained:
Type in all cases: in vivo
[1] = system: velvetleaf (Abutilon theophrasti Medik.) (VL); test: Postemergence herbicide test, foliar spray, velvetleaf; conditions: 3000 ppm foliar spray to drip point, treated six days after emergence, two weeks after treatment
Experimental: (§1) To illustrate the effectiveness of the previously described substituted oxadiazines of this invention as preemergence herbicides, 300 mg of the chemical was dissolved in a composition comprising 10 mL acetone to which 30 mg of tile emulsifying agent, ethoxylated sorbitan monolaurate, was added. The solution was diluted to 100 mL with distilled water. Ten milliliters of this 3000 ppm solution was diluted to 250 ppm with distilled water. The chemical was applied at the rate of 10 pounds/acre (11.2 kg/ha) by drenchings 46 mL of the 250 ppm solution on the surface of soil in 4½ inch (11.25 cm) plastic pots wherein seeds of the following weeds had been planted: velvetleaf (Abutilon theophrasti Medik.) (VL), To illustrate the effectiveness of the described substituted oxadiazines as postemergence herbicides, the 3000 ppm solution described under Example 5 was atomized with a conventional DeVilbiss™ sprayer, wetting the foliage to the drip point. The weeds, which were the same species as described in Example 5, were treated six days after emergence. The percent weed control was evaluated two weeks after treatment.

[2] = system: green foxtail (Setaria virdis (L.) Beauv.) (GF); test: Postemergence herbicide test, foliar spray, green foxtail; conditions: 3000 ppm foliar spray to drip point, treated six days after emergence, two weeks after treatment
Experimental: as §1, with “41⁄2” for “4½”, “green foxtail (Setaria […].) Beauv.) (GF).” for “velvetleaf (Abutilon theophrasti Medik.) (VL),”, “DeVilbissTM” for “DeVilbiss™”

[3] = system: switchgrass (Panicum virgahim L.) (SG); test: Preemergence herbicide test, soil drench, switchgrass; conditions: Panicum, 336 h, 10 lbs/A (11.2 kg/ha) soil drench, two weeks after treatment, vs untreated checks, read-out: Percent Weed Control SG
Summary of the method: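 Preemergence soil drench at 10 pounds/acre (11.2 kg/ha), 46 mL of 250 ppm aqueous solution (acetone, ethoxylated sorbitan monolaurate) applied to pots sown with switchgrass seed. Percent weed control versus untreated checks scored two weeks after treatment.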

[4] = system: tall morningglory (Ipomoea purpurea (L.) Roth) (TM); test: Preemergence herbicide test, soil drench, tall morningglory; conditions: Ipomoea, 336 h, 10 lbs/A (11.2 kg/ha) soil drench, two weeks after treatment, vs untreated checks, read-out: Percent Weed Control TM
Summary of the method: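 Acetone/emulsifier formulation diluted to 250 ppm and drenched onto soil surface of seeded pots at 10 lb/acre (11.2 kg/ha), preemergence. Percent weed control versus untreated checks scored two weeks after treatment.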

[5] = system: tall morningglory (Ipomoea purpurea (L.) Roth) (TM); test: Postemergence herbicide test, foliar spray, tall morningglory; conditions: 3000 ppm foliar spray to drip point, treated six days after emergence, two weeks after treatment
Experimental: as §1, with “tall morningglory (Ipomoea purpurea (L.) Roth) (TM),” for “velvetleaf (Abutilon theophrasti Medik.) (VL),”

[6] = system: prickly sida (Sida spinosa L.) (PS); test: Postemergence herbicide test, foliar spray, prickly sida; conditions: 3000 ppm foliar spray to drip point, treated six days after emergence, two weeks after treatment
Experimental: as §1, with “41⁄2” for “4½”, “prickly […] spinosa L.) (PS),” for “velvetleaf (Abutilon theophrasti Medik.) (VL),”, “DeVilbissTM” for “DeVilbiss™”

## FC(F)(F)C1=NC(C(F)(F)F)(C(F)(F)F)N=C(c2cccc(Cl)c2)O1 [Compound 4, 2-(3-chlorophenyl)-4,4,6-tris(trifluoromethyl)-4H-1,3,5-oxadiazine]
[1]
  Percent Weed Control VL: 50%
[2]
  Percent Weed Control GF: 100%
[3]
  pest or weed control at 11208.5 g/ha: 100%
[4]
  pest or weed control at 11208.5 g/ha: 100%
[5]
  Percent Weed Control TM: 100%
[6]
  Percent Weed Control PS: 90%

## FC(F)(F)C(F)(F)C1=NC(C(F)(F)F)(C(F)(F)F)N=C(c2cccc(Cl)c2)O1 [Compound 13, 2-(3-chlorophenyl)-6-(pentafluoroethyl)-4,4-bis(trifluoromethyl)-4H-1,3,5-oxadiazine]
[1]
  Percent Weed Control VL: 100%
[2]
  Percent Weed Control GF: 100%
[3]
  pest or weed control at 11208.5 g/ha: 100%
[4]
  pest or weed control at 11208.5 g/ha: 100%
[5]
  Percent Weed Control TM: 100%
[6]
  Percent Weed Control PS: 100%

## Fc1ccc(C2=NC(C(F)(F)F)(C(F)(F)F)N=C(C(F)(F)C(F)(F)F)O2)cc1Cl [Compound 20, 2-(3-chloro-4-fluorophenyl)-6-(pentafluoroethyl)-4,4-bis(trifluoromethyl)-4H-1,3,5-oxadiazine]
[1]
  Percent Weed Control VL: 70%
[2]
  Percent Weed Control GF: 0%
[3]
  pest or weed control at 11208.5 g/ha: 100%
[4]
  pest or weed control at 11208.5 g/ha: 100%
[5]
  Percent Weed Control TM: 0%
[6]
  Percent Weed Control PS: 70%

## FC(F)(F)C(F)(F)C1=NC(C(F)(F)F)(C(F)(F)F)N=C(c2ccc(Cl)cc2)O1 [Compound 24, 2-(4-chlorophenyl)-6-(pentafluoroethyl)-4,4-bis(trifluoromethyl)-4H-1,3,5-oxadiazine]
[1]
  Percent Weed Control VL: 50%
[2]
  Percent Weed Control GF: 0%
[3]
  pest or weed control at 11208.5 g/ha: 100%
[4]
  pest or weed control at 11208.5 g/ha: 100%
[5]
  Percent Weed Control TM: 0%
[6]
  Percent Weed Control PS: 100%

## FC(F)(F)C(F)(F)C1=NC(C(F)(F)F)(C(F)(F)F)N=C(c2ccc(Br)cc2)O1 [Compound 25, 2-(4-bromophenyl)-6-(pentafluoroethyl)-4,4-bis(trifluoromethyl)-4H-1,3,5-oxadiazine]
[1]
  Percent Weed Control VL: 100%
[2]
  Percent Weed Control GF: 30%
[3]
  pest or weed control at 11208.5 g/ha: 100%
[4]
  pest or weed control at 11208.5 g/ha: 100%
[5]
  Percent Weed Control TM: 20%
[6]
  Percent Weed Control PS: 100%
